{
  "source": "paper PMC8945229",
  "about": "“Development and Biological Characterization of a Novel Selective TrkA Agonist with Neuroprotective Properties against Amyloid Toxicity” (Biomedicines, 2022)",
  "key": {"[1]": {"tested_on": "Erk1/2", "experiment": "Erk1/2 phosphorylation in PC12 cells (Western blot)", "type": "cell-based", "procedure": "For immunoprecipitation experiments PC12 or HEK293T, cells were used when at 70–80% confluent. Cells were starved of serum for 4 h and subsequently treated with 100 ng/mL NGF or 500 nM of compound ENT-A013 for 30′. Cells were then lysed in Pierce™ IP Lysis Buffer (87788, Thermo Fischer Scientific, Waltham, MA, USA) containing proteases (539138, Calbiochem, Darmstadt, Germany) and phosphatase inhibitors (524629, Calbiochem, Darmstadt, Germany). Lysates were then immunoprecipitated overnight at 4 °C with TrkA antibody (1:100, 06-574, Sigma-Aldrich, St. Louis, MO, USA) (Table S1) or p75^NTR antibody (1:100, ab6172, Abcam plc., Cambridge, UK) followed by 4 h incubation with protein G-plus agarose beads (sc-2002, Santa Cruz Biotechnology, Inc., Dallas, TX, USA). Beads were then collected, washed 3X with lysis buffer, resuspended in SDS loading buffer and subjected to Western blot against phosphorylated Tyrosine (1:1000, BAM1676, R&D Systems, Inc., Minneapolis, MN, USA) or Traf6 antibody (1:2000, ab33915, Abcam, plc., Cambridge, UK). Whole cell lysates were subjected to Western blot against TrkA (1:1000, 06-574, Sigma-Aldrich, St. Louis, MO, USA), phosphorylated TrkB (1:1000, ABN1381, Sigma-Aldrich, St. Louis, MO, USA), phosphorylated TrkC (1:1000, STJ90960, St John’s Laboratory, Ltd., London, UK), TrkB (1:1000, 07-225-I, Sigma-Aldrich, St. Louis, MO, USA), TrkC (1:1000, C44H5, Cell Signaling Technology, Danvers, MA, USA), p75 (1:1000, 839701, Biolegend, Inc., San Diego, CA, USA), Traf6 (1:2000, ab33915, Abcam, plc., Cambridge, UK) phosphorylated Akt (1:1000, 9721S, Cell Signaling Technology, Danvers, MA, USA), phosphorylated Erk1/2 (1:1000, 9101S, Cell Signaling Technology, Danvers, MA, USA), total Akt (1:1000, 4691S Cell Signaling Technology, Danvers, MA, USA) and total Erk1/2 (1:1000, 4695S, Cell Signaling Technology, Danvers, MA, USA)."}, "[2]": {"tested_on": "Primary Dorsal Root Ganglia (DRG) neurons", "experiment": "TUNEL assay in primary DRG neurons upon NGF withdrawal", "type": "cell-based, mouse", "details": "500 nM every 24 h, 48 h, NGF-neutralizing antibody", "procedure": "Primary Dorsal Root Ganglia (DRG) neurons were isolated from P0-P1 mouse pups (C57BL/6J, The Jackson Laboratory, Bar Harbor, ME, USA) as described previously and cultured with Neurobasal medium (21103049 Gibco, Grand Island, NY, USA) containing 2% B27 (17504044, Gibco, Grand Island, NY, USA), 100 ng/mL NGF (N-100, Alomone Labs, Jerusalem, Israel), 1X GlutaMax (35050061, Gibco, Grand Island, NY, USA), 10 mM HEPES (15630080, Gibco, Grand Island, NY, USA), 1% Penicillin/Streptomycin (15070063, Gibco, Grand Island, NY, USA) and 10 μM 5-Fluoro-2′-deoxyuridine (343333, Calbiochem, Darmstadt, Germany). For TUNEL assay, cells were cultured for 14 days in vitro and then the medium was deprived of NGF before adding ENT-A013 (500 nM, every 24 h) along with NGF-neutralizing antibody (N8773, 1:500, Sigma-Aldrich, St. Louis, MO, USA). Cells were then incubated for 48 h before being fixed with 4% PFA and labelled with TUNEL (11684795910, F. Hoffmann–La Roche Ltd., Basel, Switzerland) following the manufacturer’s protocol. Subsequently, cells were immunostained against Tuj1 (1:2000, 801201, Biolegend, Inc., San Diego, CA, USA) and anti-mouse Cy3 (1:1000, Invitrogen, A10521, Waltham, MA, USA) and imaged with a Leica SP8 confocal microscope. […] Cells were then imaged by confocal microscopy and neurite length was measured using Fiji software (NIH, Bethesda, Maryland, USA)."}, "[3]": {"tested_on": "NIH-3T3-TrkB cells", "experiment": "CellTox assay in serum-starved NIH-3T3-TrkB cells", "type": "cell-based", "details": "24hrs", "procedure": "(§1) treated with ENT-A013 (500nM) or Neurotrophin-3 (100ng/ml) for 30’ and then subjected to Western Blot against phosphorylated TrkC, Akt and Erk1/2. […]\n(§2) phosphorylated any of those. (D) CellTox assay was performed in NIH-3T3-TrkB cells that were starved from serum and treated with ENT-A013 or BDNF for 24hrs. Quantification (E) […]\n(§3) negative control (Serum Free).\n(§4) Supplementary Figure S3: Primary DRG neurons were cultured in the presence of ENT-A013 (500nM, supplemented every 48hrs) and a neutralizing antibody against NGF for 5 days and then neurite length was measured by immunostaining against Tuj1 .\n(§5) Supplementary Figure S4: Primary hippocampal neurons at 14-16 DIV were treated with oligomeric Aβ and in the presence of ENT-A013 (500nM, supplemented every 24hrs) for 48hrs and then were subjected to Western Blot against phosphorylated JNK. A representative blot […]"}, "[4]": {"tested_on": "phosphorylated JNK", "experiment": "JNK phosphorylation in primary hippocampal neurons treated with oligomeric Aβ (Western blot)", "type": "cell-based, mouse", "details": "500 nM every 24 h, 48 h", "procedure": "as §1, §2, §3, §4, §5"}},
  "data": [
    {"compound": "CC12CCC(O)CC1=CCC1C2CCC2(C)C1CCC21CC1C=CBr", "note": "[ENT-A013, (2′R,3S,17S)-2′-(2-Bromovinyl)-5-Androstene-17,1′-Cyclopropan-3-ol]", "values": [
      {"measurement": "time Erk1/2 phosphorylation is sustained after treatment", "setting": "[1]", "value": "up to 1 hr"},
      {"measurement": "Erk1/2 phosphorylation", "setting": "[1]; 500 nM, 30′", "value": "2.5 ± 0.6 % of control FC"},
      {"measurement": "NGF deprivation-induced apoptosis (TUNEL, in words)", "setting": "[2]", "value": "significantly reverse the NGF deprivation-induced apoptosis"},
      {"measurement": "cell death vs negative control (Serum Free) (in words)", "setting": "[3]", "value": "no significant difference"},
      {"measurement": "phosphorylated JNK levels (in words)", "setting": "[4]", "value": "reduced phosphorylated JNK levels similar to untreated control cells"}
    ]}
  ]
}
